Results: patent publication US9340572B2, “Taccalonolide microtubule stabilizers” (THE BOARD OF REGENTS OF THE UNIVERSITY OF TEXAS SYSTEM, priority 2011, dated 2016)
Like-named read-outs stand apart in the source and are kept apart here. Values belong to the compound of their own block, whether it stands above or below them.

Columns and labels:
HeLa cells [1] = assay: Inhibition of cellular proliferation, SRB assay in HeLa cells; type: cell-based; conditions: for IC50: HeLa cells, SRB assay; for fold increase in potency on epoxidation at C22-C23: epoxide compared with parent taccalonolide
Experimental: The determination of IC50 values was performed on taccalonolide material after NMR analysis and subsequent lyophilization. Ethanol or DMSO was used as the vehicle for all cellular studies.
The antiproliferative potencies of the taccalonolides were evaluated in HeLa cells using the SRB assay. Several new taccalonolides with low nanomoloar potency were identified, Table 1.

[2] = test system: human mammary epithelial cells; assay: Cytotoxicity to normal cells; type: cell-based; conditions: concentrations 5 to 100-fold their IC50 values in HeLa
WTβIII versus HeLa cells = assay: Relative resistance, βIII-tubulin expressing cell line pair; type: cell-based
Experimental: (§1) FIG. 7—Effect of the taccalonolides in drug resistant and sensitive cells. IC50 values for inhibition of cellular proliferation for taccalonolides AF and AJ were determined in drug sensitive and drug resistant cell lines. The HeLa cell pair evaluated the effect of βIII tubulin expression on cell sensitivity and the ability of compounds to overcome drug resistance mediated by βIII tubulin expression. The SK-OV-3 cell line pair was used to evaluate the effects of the expression of P-glycoprotein (Pgp) on cell sensitivity and the ability of compounds to overcome Pgp-mediated drug resistence. The effects of the taccalonolides on the drug senstive prostate cancer cell line PC-3 are also presented. IC50 values were calculated from an average of 3-4 independent experiments, each performed in triplicate.
(§2) The HeLa cervical cancer cell line, the SK-OV-3 ovarian cancer cell line and the PC-3 prostate cancer cell line were obtained from American Type Tissue Culture Collection (Manassas, Va.) and grown in Basal Media Eagle (BME) or RPMI 1640 medium (Invitrogen; Carlsbad, Calif.) supplemented with 10% fetal bovine serum (Hyclone; Logan, Utah) and 50 μg/ml gentamicin sulfate (Invitrogen). […]
(§3) The antiproliferative and cytotoxic effects of the taccalonolides were evaluated using the SRB assay (Skehan et al., 1990, Boyd and Paull, 1995) as previously described (Tinley et al., 2003). […]

[3] = test system: purified porcine brain tubulin; assay: Tubulin polymerization followed turbidimetrically; type: biochemical; conditions: 10 μM; 2 mg/ml tubulin, 10% glycerol, 1 mM GTP, 37° C., OD340
Experimental: FIG. 5—Effect of the taccalonolides on purified porcine brain tubulin. […] Tubulin polymerization was monitored by turbidity measurement at OD340.
The ability of these new potent taccalonolides to interact directly with tubulin was assessed by incubating purified porcine brain tubulin at a concentration of 2 mg/ml in the presence of 10% glycerol and 1 mM GTP, which allows for a baseline level of tubulin polymerization that can be followed turbidimetrically (FIG. 5).

HeLa cells [4] = assay: Interphase microtubule bundling by indirect immunofluorescence; type: cell-based; conditions: 18 h; 200 nM AF, 200 nM AI, 70 nM AJ
Experimental: FIGS. 2A-D—Effect of the taccalonolides on interphase cells. HeLa cells were treated for 18 h with vehicle (FIG. 2A), 200 nM taccalonolide AF (FIG. 2B), 200 nM taccalonolide AI (FIG. 2C), or 70 nM taccalonolide AJ (FIG. 2D). Interphase microtubule structures were visualized by indirect immunofluorescence using a β-tubulin antibody.
(§4) Cellular microtubules in interphase and mitotic HeLa cells were visualized using indirect immunofluorescence techniques as previously described (Tinley et al., 2003). […] Representative images of interphase and mitotic cells were acquired using a Nikon Eclipse 80i fluorescence microscope and compiled using NIS Elements AR 3.0 software.

HeLa cells [5] = assay: Mitotic spindle structures by indirect immunofluorescence; type: cell-based; conditions: 18 h; 125 nM AF, 200 nM AI, 35 nM AJ
Text: FIGS. 4A-D—Effect of the taccalonolides on mitotic spindles. […] The microtubule structures in mitotic cells were visualized by indirect immunofluorescence using a β-tubulin antibody.
as §4
The effects of the taccalonolides on mitotic spindle structures were evaluated to test whether they caused mitotic spindle defects leading to cell cycle arrest. β-tubulin and DNA were visualized in HeLa cells by indirect immunofluorescence and DAPI staining, respectively. […] These mitotic cells contained multiple abnormal mitotic spindles, which is another common effect of microtubule stabilizing agents (FIGS. 4A-D).

[6] = test system: SK-OV-3/MDR-1-6/6 versus SK-OV-3 cells; assay: Relative resistance, P-glycoprotein expressing cell line pair; type: cell-based; conditions: P-glycoprotein expressing SK-OV-3 pair
Experimental: as §1, §2, §3

[7] = test system: MDA-MB-231 human breast tumors; assay: Antitumor activity against MDA-MB-231 tumors in nude mice; type: in vivo
Experimental: FIG. 6—Antitumor activity of taccalonolide AF. […] Tumor size was measured using calipers and volume calculated with the formula: Tumor volume (mm^3)=width (mm)×length (mm)×height (mm) and graphed as median tumor size for days 0-8.
The ability of taccalonolide AF to inhibit the growth of the aggressive human breast tumor MDA-MB-231 in a murine host was determined Taccalonolide AF was administered at a dose of 2.5 mg/kg on days 1 and 3.

[8] = test system: cell lines that overexpress MRP7; conditions: MRP7 overexpressing cell lines; cited from earlier work
[9] = test system: doxorubicin- and paclitaxel-resistant Pgp-expressing tumor, Mam17/ADR; conditions: cited from earlier work
[10] = test system: cell lines that overexpress Pgp; conditions: Pgp overexpressing cell lines; cited from earlier work
[11] = cited from earlier work
[12] = test system: isogenic HeLa-derived cell line that expresses the βIII isotype of tubulin; conditions: cited from earlier work
[13] = parent taccalonolide, read-out: IC50 (nM), Taccalonolide

IC50 (HeLa cells [1]; [13]): 20000 nM
SMILES: CC(=O)O[C@H]1C2[C@@H]([C@@H](O)[C@@H](O)[C@H]3C[C@@H]4O[C@@H]4[C@H](OC(C)=O)[C@]23C)[C@@H]2[C@@H](O)[C@@H]3[C@H]([C@H](C)C=C4OC(=O)[C@@](C)(O)[C@@]43C)[C@@]2(C)[C@H]1OC(C)=O (some centres unmarked) [TA-NaBH4-10]

IC50 (HeLa cells [1]; [13]): 7500 nM
SMILES: CC(=O)O[C@@H]1[C@H](O)[C@@H]2C([C@H](OC(C)=O)[C@H](OC(C)=O)[C@]3(C)[C@@H]4[C@@H]([C@H](O)[C@@H]23)[C@]2(C)C(=C[C@H]4C)OC(=O)[C@@]2(C)O)[C@]2(C)[C@@H]1C[C@@H]1O[C@@H]1[C@@H]2OC(C)=O (some centres unmarked) [TA-NaBH4-12]

SMILES: CC(=O)O[C@H]1C(=O)[C@H]2C[C@@H]3O[C@@H]3[C@H](OC(C)=O)[C@]2(C)C2[C@@H]1[C@@H]1[C@@H](O)[C@@H]3[C@H]([C@H](C)C=C4OC(=O)[C@@](C)(O)[C@@]43C)[C@@]1(C)[C@@H](OC(C)=O)[C@H]2OC(C)=O (some centres unmarked) [TB-AC-16]
IC50 (HeLa cells [1]; [13]): 40000 nM

SMILES: CC(=O)O[C@@H]1[C@H]2[C@H]3C([C@H](OC(C)=O)[C@H](OC(C)=O)[C@]2(C)[C@@H]2[C@@H]1[C@]1(C)C(=C[C@@]2(C)OO)OC(=O)[C@@]1(C)O)[C@]1(C)[C@H](C[C@@H]2O[C@@H]2[C@@H]1OC(C)=O)C(=O)[C@@H]3O (some centres unmarked) [Taccalonolide AC]
IC50 (HeLa cells [1]; Homo sapiens, parent taccalonolide, read-out: IC50 (nM), Taccalonolide): > 50000 nM
IC50 (HeLa cells [1]; Homo sapiens, read-out: IC50 value): > 50000 nM

SMILES: CC(=O)O[C@@H]1[C@H]2[C@H]3[C@H]([C@H](OC(C)=O)[C@H](OC(C)=O)[C@]2(C)[C@H]2[C@H](C)[C@H]4O[C@]45OC(=O)[C@@](C)(O)[C@]5(C)[C@@H]12)[C@]1(C)[C@H](C[C@@H]2O[C@@H]2[C@@H]1OC(C)=O)C(=O)[C@@H]3O [Taccalonolide AF]
cytotoxicity of normal cells [2]: No cytotoxicity
relative resistance (IC50 resistant line / IC50 parental line) (WTβIII versus HeLa cells): much lower than paclitaxel
rate and extent of tubulin polymerization [3]: dramatically increased
bundling of interphase microtubules (HeLa cells [4]): formation of thick bundled microtubule tufts
effect on mitotic spindles (HeLa cells [5]): mitotic arrest of cells with multiple abnormal mitotic spindles
relative resistance (IC50 resistant line / IC50 parental line) [6]: much lower than paclitaxel
fold increase in potency on epoxidation at C22-C23 (HeLa cells [1]; HeLa IC50): 234 fold
antitumor activity compared to paclitaxel positive control ([7]; 2.5 mg/kg days 1 and 3 vs 10 mg/kg paclitaxel days 1, 3 and 5, first week of treatment): greater antitumor activity than the positive control
antitumor activity compared to vehicle treated controls ([7]; 2.5 mg/kg on days 1 and 3, preliminary): sufficient to observe antitumor activity

SMILES: CC(=O)O[C@H]1[C@H]2[C@H]([C@@H]3[C@@H](O)[C@@H]4[C@H]([C@H](C)[C@@H]5O[C@@]56OC(=O)[C@@](C)(O)[C@]46C)[C@@]3(C)[C@H]1OC(C)=O)[C@@H](O)C(=O)[C@H]1C[C@@H]3O[C@@H]3[C@H](OC(C)=O)[C@]21C [Taccalonolide AJ]
cytotoxicity of normal cells [2]: No cytotoxicity
relative resistance (IC50 resistant line / IC50 parental line) (WTβIII versus HeLa cells): much lower than paclitaxel
rate and extent of tubulin polymerization [3]: dramatically increased
bundling of interphase microtubules (HeLa cells [4]): formation of thick bundled microtubule tufts
effect on mitotic spindles (HeLa cells [5]): mitotic arrest of cells with multiple abnormal mitotic spindles
relative resistance (IC50 resistant line / IC50 parental line) [6]: much lower than paclitaxel
fold increase in potency on epoxidation at C22-C23 (HeLa cells [1]; HeLa IC50): 743 fold

SMILES: CC(=O)O[C@@H]1[C@H]2[C@H]3[C@H]([C@H](OC(C)=O)[C@H](OC(C)=O)[C@]2(C)[C@@H]2[C@@H]1[C@]1(C)C(=C[C@H]2C)OC(=O)[C@@]1(C)O)[C@]1(C)[C@H](C[C@@H]2O[C@@H]2[C@@H]1OC(C)=O)C(=O)[C@@H]3O [Taccalonolide A]
efficacy in vitro [8]: effective
activity in vivo [9]: highly active
efficacy in vitro [10]: effective
in vivo antitumor activity [11]: have in vivo antitumor activity

SMILES: CC(=O)O[C@H]1[C@H]2[C@H]([C@@H]3[C@@H](O)[C@@H]4[C@H]([C@H](C)C=C5OC(=O)[C@@](C)(O)[C@@]54C)[C@@]3(C)[C@H]1OC(C)=O)[C@@H](O)C(=O)[C@H]1C[C@@H]3O[C@@H]3[C@H](OC(C)=O)[C@]21C [Taccalonolide B]
efficacy in vitro [8]: effective
efficacy in vitro [10]: effective

SMILES: CC(=O)O[C@@H]1[C@H]2[C@@H]3[C@@H](O)C(=O)[C@H]4C[C@@H]5O[C@@H]5[C@H](OC(C)=O)[C@]4(C)[C@H]3C[C@H](OC(C)=O)[C@]2(C)[C@@H]2[C@@H]1[C@]1(C)C(=C[C@H]2C)OC(=O)[C@@]1(C)O [Taccalonolide E]
efficacy in vitro [8]: effective
activity in vivo [9]: highly active
efficacy in vitro [10]: effective
in vivo antitumor activity [11]: have in vivo antitumor activity

SMILES: CC(=O)O[C@H]1[C@@H]2[C@H]([C@H](C)C=C3OC(=O)[C@@](C)(O)[C@@]32C)[C@]2(C)[C@@H]1C1=C(O)C(=O)[C@H]3C[C@@H]4O[C@@H]4[C@H](OC(C)=O)[C@]3(C)[C@H]1[C@H](OC(C)=O)[C@@H]2OC(C)=O [Taccalonolide H2, reference compound]
fold more potent than taccalonolide A (HeLa cells [1]; HeLa IC50): 7.4 fold

SMILES: CC(=O)O[C@H]1C[C@H]2[C@H]([C@@H]3[C@@H](O)[C@@H]4[C@H]([C@H](C)C=C5OC(=O)[C@@](C)(O)[C@@]54C)[C@]31C)[C@@H](O)C(=O)[C@H]1C[C@@H]3O[C@@H]3[C@H](OC(C)=O)[C@@]12C [Taccalonolide N]
efficacy in vitro [8]: effective
efficacy in vitro [10]: effective
in vivo antitumor activity [11]: have in vivo antitumor activity

SMILES: CC(=O)O[C@@]12CO[C@@H]1C[C@H](O)[C@@]1(C)C(=O)[C@H](O)C3=C(C)[C@@H](OC(=O)[C@H](O)[C@@H](NC(=O)OC(C)(C)C)c4ccccc4)C[C@@](O)([C@@H](OC(=O)c4ccccc4)[C@H]21)C3(C)C [docetaxel]
sensitivity of βIII-tubulin-overexpressing cell line compared with parental HeLa cells [12]: less sensitive

SMILES: C/C(=C\c1csc(C)n1)[C@@H]1C[C@@H]2O[C@]2(C)CCC[C@H](C)[C@H](O)[C@@H](C)C(=O)C(C)(C)[C@@H](O)CC(=O)O1 [epothilone B]
sensitivity of βIII-tubulin-overexpressing cell line compared with parental HeLa cells [12]: less sensitive

SMILES: CC[C@]1(O)C[C@@H]2CN(CCc3c([nH]c4ccccc34)[C@@](C(=O)OC)(c3cc4c(cc3OC)N(C)[C@H]3[C@@](O)(C(=O)OC)[C@H](OC(C)=O)[C@]5(CC)C=CCN6CC[C@]43[C@@H]65)C2)C1 [vinblastine]
sensitivity of βIII-tubulin-overexpressing cell line compared with parental HeLa cells [12]: less sensitive
